From BindingDB's records for doi:10.1021/jm960441m (Upjohn, 1997)
pKi: −log10 of the molar value.

molecular target: T1, Dimer of Gag-Pol polyprotein [489-587] (Human immunodeficiency virus 1, UniProt P12497); assay: Protease Inhibition Assay; settings: not given
T1 construct: 489-587
From the text: HIV-1 protease was purified and refolded from E. coli inclusion bodies. […] In the presence of HIV-l protease, the substrate is rapidly cleaved into two parts. The biotinylated amino terminal fragment binds to the avidin beads while the FITC-containing carboxy1 terminal fragment is removed through the membrane. […] The bound fluorescence is obtained by processing on an IDEXX Screen Machine. Determination of Ki values with this assay requires analysis under conditions in which substrate concentration resides substantially below Km and the inhibitor concentrations greatly exceeds the Ki value and the enzyme concentration.

| Structure (SMILES) | pKi |
| --- | --- |
| O=c1oc2c(c(O)c1C(c1cccc(NS(=O)(=O)c3ccc(Cl)c(Cl)c3)c1)C1CC1)CCCCCC2 (configuration not stated) [3,4-dichloro-N-{3-[cyclopropyl({4-hydroxy-2-oxo-2H,5H,6H,7H,8H,9H,10H-cycloocta[b]pyran-3-yl})methyl]phenyl}benzene-1-sulfonamide] | 8.39 |
| O=c1oc2c(c(O)c1C(c1cccc(NS(=O)(=O)c3ccc([N+](=O)[O-])cc3)c1)C1CC1)CCCCCC2 (configuration not stated) [N-{3-[cyclopropyl({4-hydroxy-2-oxo-2H,5H,6H,7H,8H,9H,10H-cycloocta[b]pyran-3-yl})methyl]phenyl}-4-nitrobenzene-1-sulfonamide] | 8.57 |
| O=c1oc2c(c(O)c1C(c1cccc(NS(=O)(=O)c3ccc(I)cc3)c1)C1CC1)CCCCCC2 (configuration not stated) [N-{3-[cyclopropyl({4-hydroxy-2-oxo-2H,5H,6H,7H,8H,9H,10H-cycloocta[b]pyran-3-yl})methyl]phenyl}-4-iodobenzene-1-sulfonamide] | 8.51 |
| O=c1oc2c(c(O)c1C(c1cccc(NS(=O)(=O)c3ccc(C(F)(F)F)c(C(F)(F)F)c3)c1)C1CC1)CCCCCC2 (configuration not stated) [N-{3-[cyclopropyl({4-hydroxy-2-oxo-2H,5H,6H,7H,8H,9H,10H-cycloocta[b]pyran-3-yl})methyl]phenyl}-3,4-bis(trifluoromethyl)benzene-1-sulfonamide] | 7.33 |
| O=c1oc2c(c(O)c1C(c1cccc(NS(=O)(=O)c3cccc4ccccc34)c1)C1CC1)CCCCCC2 (configuration not stated) [N-{3-[cyclopropyl({4-hydroxy-2-oxo-2H,5H,6H,7H,8H,9H,10H-cycloocta[b]pyran-3-yl})methyl]phenyl}naphthalene-1-sulfonamide] | 8.26 |
| O=c1oc2c(c(O)c1C(c1cccc(NS(=O)(=O)c3ccc4ccccc4c3)c1)C1CC1)CCCCCC2 (configuration not stated) [N-{3-[cyclopropyl({4-hydroxy-2-oxo-2H,5H,6H,7H,8H,9H,10H-cycloocta[b]pyran-3-yl})methyl]phenyl}naphthalene-2-sulfonamide] | 8.39 |
| O=c1oc2c(c(O)c1C(c1cccc(NS(=O)(=O)c3cc(Cl)cc(Cl)c3)c1)C1CC1)CCCCCC2 (configuration not stated) [3,5-dichloro-N-{3-[cyclopropyl({4-hydroxy-2-oxo-2H,5H,6H,7H,8H,9H,10H-cycloocta[b]pyran-3-yl})methyl]phenyl}benzene-1-sulfonamide] | 8.16 |
| O=c1oc2c(c(O)c1C(c1cccc(NS(=O)(=O)c3cscn3)c1)C1CC1)CCCCCC2 (configuration not stated) [N-{3-[cyclopropyl({4-hydroxy-2-oxo-2H,5H,6H,7H,8H,9H,10H-cycloocta[b]pyran-3-yl})methyl]phenyl}-1,3-thiazole-4-sulfonamide] | 8.80 |
| O=c1oc2c(c(O)c1C(c1cccc(NS(=O)(=O)c3ccc4ccccc4n3)c1)C1CC1)CCCCCC2 (configuration not stated) [N-{3-[cyclopropyl({4-hydroxy-2-oxo-2H,5H,6H,7H,8H,9H,10H-cycloocta[b]pyran-3-yl})methyl]phenyl}quinoline-2-sulfonamide] | 9.40 |
| O=c1oc2c(c(O)c1C(c1cccc(NS(=O)(=O)c3cnccn3)c1)C1CC1)CCCCCC2 (configuration not stated) [N-{3-[cyclopropyl({4-hydroxy-2-oxo-2H,5H,6H,7H,8H,9H,10H-cycloocta[b]pyran-3-yl})methyl]phenyl}pyrazine-2-sulfonamide] | 9.70 |
| O=c1oc2c(c(O)c1C(c1cccc(NS(=O)(=O)c3ncccn3)c1)C1CC1)CCCCCC2 (configuration not stated) [N-{3-[cyclopropyl({4-hydroxy-2-oxo-2H,5H,6H,7H,8H,9H,10H-cycloocta[b]pyran-3-yl})methyl]phenyl}pyrimidine-2-sulfonamide] | 9.10 |
| O=c1oc2c(c(O)c1C(c1cccc(NS(=O)(=O)c3c(Cl)cccc3Cl)c1)C1CC1)CCCCCC2 (configuration not stated) [2,6-dichloro-N-{3-[cyclopropyl({4-hydroxy-2-oxo-2H,5H,6H,7H,8H,9H,10H-cycloocta[b]pyran-3-yl})methyl]phenyl}benzene-1-sulfonamide] | < 6.70 |
| O=c1oc2c(c(O)c1C(c1cccc(NS(=O)(=O)c3cccc(Cl)c3Cl)c1)C1CC1)CCCCCC2 (configuration not stated) [2,3-dichloro-N-{3-[cyclopropyl({4-hydroxy-2-oxo-2H,5H,6H,7H,8H,9H,10H-cycloocta[b]pyran-3-yl})methyl]phenyl}benzene-1-sulfonamide] | 8.12 |
| O=c1oc2c(c(O)c1C(c1cccc(NS(=O)(=O)c3ccc(Br)cc3)c1)C1CC1)CCCCCC2 (configuration not stated) [4-bromo-N-{3-[cyclopropyl({4-hydroxy-2-oxo-2H,5H,6H,7H,8H,9H,10H-cycloocta[b]pyran-3-yl})methyl]phenyl}benzene-1-sulfonamide] | 8.68 |
| Cc1cccc(C)c1S(=O)(=O)Nc1cccc(C(c2c(O)c3c(oc2=O)CCCCCC3)C2CC2)c1 (configuration not stated) [N-{3-[cyclopropyl({4-hydroxy-2-oxo-2H,5H,6H,7H,8H,9H,10H-cycloocta[b]pyran-3-yl})methyl]phenyl}-2,6-dimethylbenzene-1-sulfonamide] | < 6.70 |
| O=c1oc2c(c(O)c1C(c1cccc(NS(=O)(=O)c3ccc(C(F)(F)F)cc3)c1)C1CC1)CCCCCC2 (configuration not stated) [N-{3-[cyclopropyl({4-hydroxy-2-oxo-2H,5H,6H,7H,8H,9H,10H-cycloocta[b]pyran-3-yl})methyl]phenyl}-4-(trifluoromethyl)benzene-1-sulfonamide] | 8.21 |
| O=c1oc2c(c(O)c1C(c1cccc(NS(=O)(=O)c3cccs3)c1)C1CC1)CCCCCC2 (configuration not stated) [N-{3-[cyclopropyl({4-hydroxy-2-oxo-2H,5H,6H,7H,8H,9H,10H-cycloocta[b]pyran-3-yl})methyl]phenyl}thiophene-2-sulfonamide] | 8.20 |
| O=c1oc2c(c(O)c1C(c1cccc(NS(=O)(=O)c3ccc(Cl)cc3)c1)C1CC1)CCCCCC2 (configuration not stated) [4-chloro-N-{3-[cyclopropyl({4-hydroxy-2-oxo-2H,5H,6H,7H,8H,9H,10H-cycloocta[b]pyran-3-yl})methyl]phenyl}benzene-1-sulfonamide] | 8.60 |
| O=c1oc2c(c(O)c1C(c1cccc(NS(=O)(=O)c3cc(Cl)ccc3Cl)c1)C1CC1)CCCCCC2 (configuration not stated) [2,5-dichloro-N-{3-[cyclopropyl({4-hydroxy-2-oxo-2H,5H,6H,7H,8H,9H,10H-cycloocta[b]pyran-3-yl})methyl]phenyl}benzene-1-sulfonamide] | 7.13 |
| O=c1oc2c(c(O)c1C(c1cccc(NS(=O)(=O)c3ccc(F)cc3)c1)C1CC1)CCCCCC2 (configuration not stated) | 8.51 |
| O=c1oc2c(c(O)c1C(c1cccc(NS(=O)(=O)c3ccc(Cl)cc3Cl)c1)C1CC1)CCCCCC2 (configuration not stated) [2,4-dichloro-N-{3-[cyclopropyl({4-hydroxy-2-oxo-2H,5H,6H,7H,8H,9H,10H-cycloocta[b]pyran-3-yl})methyl]phenyl}benzene-1-sulfonamide] | 8.21 |

same assay, conditions: pH 5; 22 °C

| Structure (SMILES) | pKi |
| --- | --- |
| O=c1oc2c(c(O)c1C(c1cccc(NS(=O)(=O)/C=C/c3ccccc3)c1)C1CC1)CCCCCC2 (configuration not stated) [(E)-N-{3-[cyclopropyl({4-hydroxy-2-oxo-2H,5H,6H,7H,8H,9H,10H-cycloocta[b]pyran-3-yl})methyl]phenyl}-2-phenylethene-1-sulfonamide] | 8.52 |
| O=c1oc2c(c(O)c1C(c1cccc(NS(=O)(=O)CCc3ccccc3)c1)C1CC1)CCCCCC2 (configuration not stated) [N-{3-[cyclopropyl({4-hydroxy-2-oxo-2H,5H,6H,7H,8H,9H,10H-cycloocta[b]pyran-3-yl})methyl]phenyl}-2-phenylethane-1-sulfonamide] | 8.41 |
| N#Cc1ccccc1S(=O)(=O)Nc1cccc(C(c2c(O)c3c(oc2=O)CCCCCC3)C2CC2)c1 (configuration not stated) [2-cyano-N-{3-[cyclopropyl({4-hydroxy-2-oxo-2H,5H,6H,7H,8H,9H,10H-cycloocta[b]pyran-3-yl})methyl]phenyl}benzene-1-sulfonamide] | 8.13 |
| O=c1oc2c(c(O)c1C(c1cccc(NS(=O)(=O)c3cccc([N+](=O)[O-])c3)c1)C1CC1)CCCCCC2 (configuration not stated) [N-{3-[cyclopropyl({4-hydroxy-2-oxo-2H,5H,6H,7H,8H,9H,10H-cycloocta[b]pyran-3-yl})methyl]phenyl}-3-nitrobenzene-1-sulfonamide] | 8.33 |
| O=c1oc2c(c(O)c1C(c1cccc(NS(=O)(=O)Cc3ccccc3)c1)C1CC1)CCCCCC2 (configuration not stated) [N-[3-[Cyclopropyl(5,6,7,8,9,10-hexahydro-4-hydroxy-2-oxo-2H-cycloocta[b]pyran-3-yl)methyl]phenyl]benzenemethanesulfonamide] | 7.89 |
| O=c1oc2c(c(O)c1C(c1cccc(NS(=O)(=O)c3ccccc3Cl)c1)C1CC1)CCCCCC2 (configuration not stated) [2-chloro-N-{3-[cyclopropyl({4-hydroxy-2-oxo-2H,5H,6H,7H,8H,9H,10H-cycloocta[b]pyran-3-yl})methyl]phenyl}benzene-1-sulfonamide] | 8.03 |
| O=c1oc2c(c(O)c1C(c1cccc(NS(=O)(=O)c3cccc(Br)c3)c1)C1CC1)CCCCCC2 (configuration not stated) [3-bromo-N-{3-[cyclopropyl({4-hydroxy-2-oxo-2H,5H,6H,7H,8H,9H,10H-cycloocta[b]pyran-3-yl})methyl]phenyl}benzene-1-sulfonamide] | 8.59 |
| O=c1oc2c(c(O)c1C(c1cccc(NS(=O)(=O)c3cccc(C(F)(F)F)c3)c1)C1CC1)CCCCCC2 (configuration not stated) [N-{3-[cyclopropyl({4-hydroxy-2-oxo-2H,5H,6H,7H,8H,9H,10H-cycloocta[b]pyran-3-yl})methyl]phenyl}-3-(trifluoromethyl)benzene-1-sulfonamide] | 8.52 |
| O=c1oc2c(c(O)c1C(c1cccc(NS(=O)(=O)c3cccc(Cl)c3)c1)C1CC1)CCCCCC2 (configuration not stated) [3-chloro-N-{3-[cyclopropyl({4-hydroxy-2-oxo-2H,5H,6H,7H,8H,9H,10H-cycloocta[b]pyran-3-yl})methyl]phenyl}benzene-1-sulfonamide] | 8.57 |
| O=c1oc2c(c(O)c1C(c1cccc(NS(=O)(=O)c3ccccc3C(F)(F)F)c1)C1CC1)CCCCCC2 (configuration not stated) [N-{3-[cyclopropyl({4-hydroxy-2-oxo-2H,5H,6H,7H,8H,9H,10H-cycloocta[b]pyran-3-yl})methyl]phenyl}-2-(trifluoromethyl)benzene-1-sulfonamide] | 7.68 |
| O=c1oc2c(c(O)c1C(c1cccc(NS(=O)(=O)c3ccccc3F)c1)C1CC1)CCCCCC2 (configuration not stated) [N-{3-[cyclopropyl({4-hydroxy-2-oxo-2H,5H,6H,7H,8H,9H,10H-cycloocta[b]pyran-3-yl})methyl]phenyl}-2-fluorobenzene-1-sulfonamide] | 7.96 |
